According to patent US20260224658A1, “PRODUCTS AND METHODS FOR THE DIAGNOSIS AND TREATMENT OF P[…]” (priority 2023, published 2026):
Where a SMILES comes first, the peptide text is derived from it. [ ]: non-standard residue; d: D form.

Columns and labels:
MPAO1-ΔmutS [1] = test: In vitro adaptive evolution (serial passaging) with MIC determination; format: cell-based, Pseudomonas aeruginosa; conditions: for cross-resistance to antibiotics induced by treatment / cross-resistance to peptides induced by treatment: MPAO1-ΔmutS evolved in the named drug; for resistance acquisition on repeated exposure to the drug: MPAO1-ΔmutS, monotherapy
Procedure: (§1) MICs were determined via microbroth dilution assay in 96-well culture plates with 2-fold serial dilutions of tested antibiotic in Mueller-Hinton (cation-adjusted) broth, inoculated with 50 μL of 2.75×10^5 CFU/mL of each bacterial strain and incubated at 37° C., 200 rpm for 24 hours. MIC experiments were performed using biological triplicates.
(§2) Serial passaging of bacterial strains was performed in 96-well culture plates with 2-fold serial dilutions of antibiotic in MH broth, inoculated with 50 μL 2.75×10^5 CFU/mL of each strain and incubated at 37° C., 200 rpm for 24 hours. […] The bacteria were then serially passaged in the same antibiotic and MIC determined for all antibiotics (aztreonam, ciprofloxacin, D-CONGA, D-CONGA-Q7, polymyxin B). See Antimicrobial susceptibility testing section. The bacteria were serially passaged a total of 10 times.
(§3) All resistance acquisition data was analyzed in units of fold-change to normalize for differences in starting MIC across strains. Fold-change in MIC data for all strains and treatment groups was natural log-transformed and simple linear regression was performed considering each replicate fold-change value as an individual point. Slope, standard error of slope, and total number of values of each treatment group of interest were analyzed via unpaired t-test (ΔmutS vs WT) or ordinary one-way ANOVA (cross-resistance acquisition of ΔmutS+AB vs −AB vs WT), and α-values were corrected for multiple comparisons using the Bonferroni method. Differences in estimated mutation rate across treatment groups were determined via ordinary one-way ANOVA (Brown-Forsythe test). For all statistical tests, p<0.05 was considered significant. All figures were created and statistical tests were done using GraphPad Prism 9.3.1.

MPAO1 [2] = test: as above; format: cell-based, Pseudomonas aeruginosa
Procedure: as §1, §2, §3

[3] = tested on: drug-resistant clinical isolates of Staphylococcus aureus, Klebsiella pneumoniae, Acinetobacter baumannii, and P. aeruginosa; conditions: in vitro and in vivo, reference 23; cited from earlier work
[4] = tested on: wild type P. aeruginosa (PAO1); conditions: reference 23; cited from earlier work
MPAO1 [5] = test: microbe, parasite or virus in culture; format: cell-based, Pseudomonas aeruginosa; conditions: strain MPAO1
Procedure: (§4) MIC experiments were performed using biological triplicates.

PAO1 = test: microbe, parasite or virus in culture; format: cell-based, Pseudomonas aeruginosa; conditions: strain PAO1
Procedure: as §4

MPAO1-ΔmutL [6] = test: MIC, microbroth dilution assay; format: cell-based, Pseudomonas aeruginosa; conditions: strain ΔmutL
Procedure: as §4

MPAO1-ΔmutS [7] = test: MIC, microbroth dilution assay; format: cell-based, Pseudomonas aeruginosa; conditions: strain ΔmutS
Procedure: as §4

MPAO1-ΔmutL [8] = test: In vitro adaptive evolution (serial passaging) with MIC determination; format: cell-based, Pseudomonas aeruginosa; conditions: MPAO1-ΔmutL, monotherapy
Procedure: as §1, §2, §3

[9] = tested on: predicted MMR-deficient clinical isolates; test: In vitro adaptive evolution of clinical isolates from pwCF; format: cell-based, Pseudomonas aeruginosa; conditions: isolates CFP6_Pa2, CFP8_Pa1 and CFP9_Pa1
Procedure: as §4

[10] = MPAO1-ΔmutS evolved in AZ + COL
[11] = MPAO1-ΔmutS evolved in AZ + D-CONGA
[12] = MPAO1-ΔmutS evolved in AZ + D-CONGA-Q7
[13] = MPAO1-ΔmutS evolved in D-CONGA-Q7
[14] = MPAO1-ΔmutS passaged with No Antibiotic (Table 4)
[15] = MPAO1-ΔmutS passaged with No Antibiotic (Table 8)
[16] = MPAO1 evolved in AZ + D-CONGA-Q7
[17] = MPAO1 passaged with No Antibiotic (Table 4)
[18] = MPAO1 passaged with No Antibiotic (Table 8)

Row | Compound | fold-change relative to starting MIC before treatment (MPAO1-ΔmutS [1]; MPAO1-ΔmutS evolved in AZ) | fold-change relative to starting MIC before treatment (MPAO1-ΔmutS [1]; [10]) | fold-change relative to starting MIC before treatment (MPAO1-ΔmutS [1]; [11]) | fold-change relative to starting MIC before treatment (MPAO1-ΔmutS [1]; [12]) | fold-change relative to starting MIC before treatment (MPAO1-ΔmutS [1]; MPAO1-ΔmutS evolved in COL) | fold-change relative to starting MIC before treatment (MPAO1-ΔmutS [1]; MPAO1-ΔmutS evolved in Chl) | fold-change relative to starting MIC before treatment (MPAO1-ΔmutS [1]; MPAO1-ΔmutS evolved in D-CONGA) | fold-change relative to starting MIC before treatment (MPAO1-ΔmutS [1]; [13]) | cross-resistance to antibiotics induced by treatment (MPAO1-ΔmutS [1]) | cross-resistance to peptides induced by treatment (MPAO1-ΔmutS [1]) | fold-change relative to starting MIC before treatment (MPAO1-ΔmutS [1]; [14]) | fold-change relative to starting MIC before treatment (MPAO1-ΔmutS [1]; [15]) | resistance acquisition on repeated exposure to the drug (MPAO1-ΔmutS [1]) | fold-change relative to starting MIC before treatment (MPAO1 [2]; MPAO1 evolved in AZ) | fold-change relative to starting MIC before treatment (MPAO1 [2]; MPAO1 evolved in AZ + COL) | fold-change relative to starting MIC before treatment (MPAO1 [2]; MPAO1 evolved in AZ + D-CONGA) | fold-change relative to starting MIC before treatment (MPAO1 [2]; [16]) | fold-change relative to starting MIC before treatment (MPAO1 [2]; MPAO1 evolved in COL) | fold-change relative to starting MIC before treatment (MPAO1 [2]; [17]) | fold-change relative to starting MIC before treatment (MPAO1 [2]; [18]) | other results
1 | CC(C)C[C@@H](NC(=O)[C@@H](CCC(N)=O)NC(=O)[C@@H](CCCNC(=N)N)NC(=O)[C@@H](CCCNC(=N)N)NC(=O)[C@@H](C)NC(=O)[C@@H](Cc1c[nH]c2ccccc12)NC(=O)[C@@H](CCCNC(=N)N)NC(=O)[C@H](N)CCCNC(=N)N)C(=O)N[C@H](C)C(=O)N[C@H](Cc1ccccc1)C(=O)N[C@H](C)C(=O)N[C@H](Cc1ccccc1)C(=O)N[C@H](CCCNC(=N)N)C(=O)N[C@H](CCCNC(=N)N)C(N)=O [D-CONGA-Q7] (H-[dR][dR][dW][dA][dR][dR][dQ][dL][dA][dF][dA][dF][dR][dR]-NH2; N-terminus and C-terminus assumed) | 0.42 | 2 | 0.67 | 0.67 | 1.75 | 1 | 2.67 | 3.33 | failed to induce marked cross-resistance to antibiotics | induced cross-resistance to other peptides | 1 | 1.38 | developed resistance | 1.2 | 1 | 1.2 | 1.2 | 1 | 1 | 1 | fold-change relative to starting MIC before treatment (MPAO1 [2]; MPAO1 evolved in D-CONGA): 1; fold-change relative to starting MIC before treatment (MPAO1 [2]; MPAO1 evolved in D-CONGA-Q7): 1.33; efficacy against drug-resistant clinical isolates [3]: efficacious in vitro and in vivo; induction of resistance [4]: has not been observed
2 | Colistin |  | 1.67 |  |  | 20 |  |  |  | failed to induce marked cross-resistance to antibiotics | induced cross-resistance to other peptides | 1 | 1 | Rapid acquisition of resistance |  | 2.67 |  |  | 2 | 1 | 1 | MIC, average of triplicates (MPAO1 [5]): 2 µg/mL; MIC, average of triplicates (PAO1): 2 µg/mL; MIC, average of triplicates (MPAO1-ΔmutL [6]): 2 µg/mL; MIC, average of triplicates (MPAO1-ΔmutS [7]): 2 µg/mL; resistance acquisition on repeated exposure to the drug (MPAO1-ΔmutL [8]): rapid resistance acquisition; Average MIC at end point (MPAO1-ΔmutS [1]; [10]): 3 µg/mL; Average MIC at end point (MPAO1-ΔmutS [1]; MPAO1-ΔmutS evolved in COL): 53 µg/mL; Average MIC at end point (MPAO1-ΔmutS [1]; [14]): 2 µg/mL; Average MIC at end point (MPAO1-ΔmutS [1]; [15]): 2 µg/mL; resistance acquisition on repeated exposure to the drug (MPAO1 [2]; MPAO1, monotherapy, more slowly than MPAO1-ΔmutS): eventually displayed an elevated minimum inhibitory concentration (MIC); Average MIC at end point (MPAO1 [2]; MPAO1 evolved in AZ + COL): 5 µg/mL; Average MIC at end point (MPAO1 [2]; MPAO1 evolved in COL): 4 µg/mL; Average MIC at end point (MPAO1 [2]; [17]): 2 µg/mL; Average MIC at end point (MPAO1 [2]; [18]): 2 µg/mL; resistance acquisition under monotherapy [9]: rapidly acquired resistance
3 | CC(C)C[C@@H](NC(=O)[C@@H](CCCNC(=N)N)NC(=O)[C@@H](CCCNC(=N)N)NC(=O)[C@@H](C)NC(=O)[C@@H](Cc1c[nH]c2ccccc12)NC(=O)[C@@H](CCCNC(=N)N)NC(=O)[C@H](N)CCCNC(=N)N)C(=O)N[C@H](C)C(=O)N[C@H](Cc1ccccc1)C(=O)N[C@H](C)C(=O)N[C@H](Cc1ccccc1)C(=O)N[C@H](CCCNC(=N)N)C(=O)N[C@H](CCCNC(=N)N)C(N)=O [D-CONGA] (H-[dR][dR][dW][dA][dR][dR][dL][dA][dF][dA][dF][dR][dR]-NH2; N-terminus and C-terminus assumed) | 0.33 | 1.3 | 0.43 | 0.67 | 3 | 1 | 2 | 3.33 | failed to induce marked cross-resistance to antibiotics | induced cross-resistance to other peptides | 1 | 1 | developed resistance | 1.2 | 1 | 1.2 | 1.2 | 1 | 2 | 1 | fold-change relative to starting MIC before treatment (MPAO1 [2]; MPAO1 evolved in D-CONGA): 1; fold-change relative to starting MIC before treatment (MPAO1 [2]; MPAO1 evolved in D-CONGA-Q7): 1.4; efficacy against drug-resistant clinical isolates [3]: efficacious in vitro and in vivo; induction of resistance [4]: has not been observed
